Laboratory results reported in ChEMBL document CHEMBL1122370 (J Med Chem, 1983).
Values joined by “and” are separate entries in the source; they are usually repeats but may differ in a detail not shown here. Equal values may be shown once.

Experiments:
[1] = system: Mus musculus; assay: Average weight of the mouse after treating with 400 mg/kg dose for 7 day.; assay type: functional
[2] = system: L1210; assay: In vivo antitumor activity against L1210 leukemia in 5 mice measured as Increased life span at 400 mg/kg.; assay type: functional, Mus musculus
[3] = system: L1210; assay: In vivo antitumor activity against L1210 leukemia in 15 mice measured as T/C values; T/C = 15/11; assay type: functional, Mus musculus
[4] = system: Mus musculus; assay: Average weight of the mouse after treating with 400 mg/kg dose for 1 day.; assay type: functional
[5] = system: L1210; assay: In vivo antitumor activity against L1210 leukemia in 5 mice measured as median survival range at 400 mg/kg; Value ranges from (14-20).; assay type: functional, Mus musculus
[6] = system: L1210; assay: In vivo antitumor activity against L1210 leukemia in 5 mice measured as median survival range at 180 mg/kg; Value ranges from (14-23); assay type: functional, Mus musculus
[7] = system: L1210; assay: In vivo antitumor activity against L1210 leukemia in 5 mice measured as median survival range at 90 mg/kg; Value ranges from (13-19); assay type: functional, Mus musculus
[8] = system: Mus musculus; assay: Average weight change in mouse after treating with 180 mg/kg dose for 7 days.; assay type: functional
[9] = system: Mus musculus; assay: Average weight of the mouse after treating with 45 mg/kg dose for 1 day; assay type: functional
[10] = system: Mus musculus; assay: Average weight of the mouse after treating with 180 mg/kg dose for 1 day; assay type: functional
[11] = system: Mus musculus; assay: Average weight of the mouse after treating with 90 mg/kg dose for 1 day; assay type: functional
[12] = system: L1210; assay: In vivo antitumor activity against L1210 leukemia in 5 mice measured as median survival range at 45 mg/kg; Value ranges from (11-13); assay type: functional, Mus musculus
[13] = system: L1210; assay: In vivo anti tumor activity against L1210 leukemia in 5 mice measured as Increased life span at 90 mg/kg; assay type: functional; settings: Mus musculus
[14] = system: L1210; assay: In vivo anti tumor activity against L1210 leukemia in 5 mice measured as Increased life span at 180 mg/kg; assay type: functional; settings: Mus musculus
[15] = system: L1210; assay: In vivo anti tumor activity against L1210 leukemia in 5 mice measured as Increased life span at 45 mg/kg; assay type: functional; settings: Mus musculus
[16] = system: Mus musculus; assay: Average weight change in mouse after treating with 90 mg/kg dose for 7 days.; assay type: functional
[17] = system: L1210; assay: In vivo antitumor activity against L1210 leukemia in 5 mice measured as Increased life span at 10 mg/kg.; assay type: functional; settings: Mus musculus
[18] = system: Mus musculus; assay: Average weight of the mouse after treating with 20 mg/kg dose for 1 day.; assay type: functional; parameters: unit not given here
[19] = system: Mus musculus; assay: Average weight of the mouse after treating with 10 mg/kg dose for 7 days.; assay type: functional
[20] = system: Mus musculus; assay: Average weight of the mouse after treating with 10 mg/kg dose for 1 day.; assay type: functional; parameters: unit not given here
[21] = system: Mus musculus; assay: Average weight of the mouse after treating with 20 mg/kg dose for 7 days.; assay type: functional; parameters: unit not given beside the values
[22] = system: Mus musculus; assay: Average weight of the mouse after treating with 40 mg/kg dose for 1 day.; assay type: functional
[23] = system: L1210; assay: In vivo anti tumor activity against L1210 leukemia in 5 mice measured as Increased life span at 40 mg/kg.; assay type: functional; settings: Mus musculus
[24] = system: L1210; assay: In vivo antitumor activity against L1210 leukemia in 5 mice measured as median survival range at 40 mg/kg; Value ranges from(21-31).; assay type: functional, Mus musculus
[25] = system: L1210; assay: In vivo antitumor activity against L1210 leukemia in 5 mice measured as Increased life span at 20 mg/kg.; assay type: functional; settings: Mus musculus
[26] = system: L1210; assay: In vivo antitumor activity against L1210 leukemia in 17 mice measured as T/C values; T/C = 17/9; assay type: functional, Mus musculus
[27] = system: L1210; assay: In vivo antitumor activity against L1210 leukemia in 16 mice measured as T/C values; T/C = 16/9; assay type: functional, Mus musculus
[28] = system: L1210; assay: In vivo antitumor activity against L1210 leukemia in 5 mice measured as T/C values; T/C = 22/9; assay type: functional, Mus musculus
[29] = system: L1210; assay: In vivo antitumor activity against L1210 leukemia in 5 mice measured as median survival range at 10 mg/kg; Value ranges from(14-22); assay type: functional, Mus musculus
[30] = system: Mus musculus; assay: Average weight of the mouse after treating with 40 mg/kg dose for 7 days.; assay type: functional; parameters: unit not given beside the values
[31] = system: L1210; assay: In vivo antitumor activity against L1210 leukemia in 5 mice measured as median survival range at 20 mg/kg; Value ranges from(15-17).; assay type: functional, Mus musculus

How did the Weight change [1] turn out when `CN(Cc1cnc2nc(N)nc(N)c2n1)c1ccc(C(=O)NC(CCC(=O)OC(C)(C)C)C(=O)OC(C)(C)C)cc1` (stereo unspecified) was run?
The Weight change was 2.6.

And the ILS [2]?
Its ILS is 36.

What about the T/C [3] of the same molecule?
The T/C was 11.

And the Average weight [4]?
Its Average weight is 27.6.

And the Range [5]?
The Range was 20.

For `CCCCCCCCOC(=O)CCC(NC(=O)c1cc(Cl)c(N(C)Cc2cnc3nc(N)nc(N)c3n2)c(Cl)c1)C(=O)OCCCCCCCC` (stereo unspecified), which Range [6] is on record?
The Range was 23.

What about the Range [7] of the same molecule?
Its Range is 19.

What about the Weight change [8] of the same molecule?
Its Weight change is 5.8.

And the Average weight [9]?
The Average weight was 26.2.

And the Average weight [10]?
Its Average weight is 28.2.

What about the Average weight [11] of the same molecule?
The Average weight was 28.2.

What about the Range [12] of the same molecule?
Its Range is 13.

And the ILS at 90 mg/kg [13]?
Its ILS at 90 mg/kg is 66%.

What about the ILS at 180 mg/kg [14] of the same molecule?
The ILS at 180 mg/kg was 122%.

What about the ILS at 45 mg/kg [15] of the same molecule?
The ILS at 45 mg/kg was 44%.

What about the Weight change [16] of the same molecule?
Its Weight change is 1.4 and 3.6.

With `CN(Cc1cnc2nc(N)nc(N)c2n1)c1ccc(C(=O)NC(CCC(=O)OCc2cccnc2)C(=O)OCc2cccnc2)cc1` (stereo unspecified) as the molecule, how does the ILS at 10 mg/kg [17] read?
Its ILS at 10 mg/kg is 88%.

What about the Average weight [18] of the same molecule?
Its Average weight is 22.

And the Weight change [19]?
Its Weight change is 1.1.

And the Average weight [20]?
Its Average weight is 21.3.

And the Weight change [21]?
The Weight change was 1.

What about the Average weight [22] of the same molecule?
The Average weight was 26.

And the ILS at 40 mg/kg [23]?
The ILS at 40 mg/kg was 144%.

What about the Range [24] of the same molecule?
The Range was 31.

And the ILS at 20 mg/kg [25]?
The ILS at 20 mg/kg was 77%.

And the T/C [26]?
The T/C was 9.

And the T/C [27]?
Its T/C is 9.

What about the T/C [28] of the same molecule?
Its T/C is 9.

And the Range [29]?
Its Range is 22.

What about the Weight change [30] of the same molecule?
The Weight change was 2.

What about the Range [31] of the same molecule?
Its Range is 17.
